Measurements taken from patent publication EP0829478A2, “N-Benzylimidazolium and N-benzyltriazolium derivatives, their preparation and their use as antifungal and antimycotic agents” (F. HOFFMANN-LA ROCHE AG, priority 1996, dated 1998).
Counter-ions that a name gives are not always drawn. Like-named read-outs stand apart in the source and are kept apart here. Values belong to the compound of their own block, whether it stands above or below them.

Columns and labels:
[1] = Water solubility (Table 1); type: physicochemical
[2] = Conversion of the azolium compounds to ketoconazole / itraconazole on incubation in human plasma; type: in vitro ADME; details: 10µg/ml, 37°C; for metabolised at 5 min / remaining at 5 min: incubation time 5 min
Procedure: The compounds of formula I were incubated with human plasma at a concentration of 10µg/ml at 37°C for up to 120 min.

[3] = tested on: Candida albicans; experiment: Systemic candidiasis model in rats, ED50; type: in vivo; details: 336 h
Excerpt: (§1) Male Fisher rats, strain F344/DuCrj, were employed for experimental infection models such as systemic candidiasis, systemic aspergillosis and pulmonary aspergillosis model. Immunocompetent 4 weeks old rats were used for systemic candidiasis or systemic aspergillosis which occurred her infection with Candida albicans conidia of 5x10^6/rat or with Aspergillus fumigatus conidia of 6x10^5/rat via tail vein. Otherwise for pulmonary aspergillosis model, rats had been immunosuppressed with cortisone acetate treatments prior to infection with 2x10^5/rat intratrachially. Treatments were given twice on the first day and once daily on following 4 days both for systemic and pulmonary aspergillosis (Ib.i.+4q.d.), for systemic candidiasis rats were treated at 0, 4, 24, and 48 h after infection (Ib.i.d.+2q.d.).

[4] = tested on: Aspergillus fumigatus; experiment: Systemic aspergillosis model in rats, ED50; type: in vivo; details: 336 h
Excerpt: as §1

[5] = tested on: Aspergillus fumigatus; experiment: Pulmonary aspergillosis model in immunosuppressed rats, ED50; type: in vivo; details: 336 h
Excerpt: as §1

[6] = solvent a = distilled water, read-out: solubility
[7] = mcilvaine buffer, pH 8.02, aqueous buffer
[8] = ketoconazole formed, read-out: Observed (%) KCZ
[9] = remaining parent compound, read-out: Observed (%) Comp. I
[10] = iv, read-out: Effective dose 50% (ED50) Systemic candidiasis i.v., male Fisher rats F344/DuCrj, immunocompetent, i.v., treated at 0, 4, 24 and 48 h after infection, determined on day 14 after infection
[11] = po, read-out: Effective dose 50% (ED50) Systemic candidiasis p.o., male Fisher rats F344/DuCrj, immunocompetent, p.o., treated at 0, 4, 24 and 48 h after infection, determined on day 14 after infection
[12] = iv, read-out: Effective dose 50% (ED50) Systemic aspergillosis i.v., male Fisher rats F344/DuCrj, immunocompetent, i.v., twice on first day, once daily on following 4 days, determined on day 14 after infection
[13] = po, read-out: Effective dose 50% (ED50) Systemic aspergillosis p.o., male Fisher rats F344/DuCrj, immunocompetent, p.o., twice on first day, once daily on following 4 days, determined on day 14 after infection
[14] = iv, read-out: Effective dose 50% (ED50) Pulmonay aspergillosis i.v., male Fisher rats F344/DuCrj immunosuppressed with cortisone acetate, i.v., twice on first day, once daily on following 4 days, determined on day 14 after infection
[15] = po, read-out: Effective dose 50% (ED50) Pulmonay aspergillosis p.o., male Fisher rats F344/DuCrj immunosuppressed with cortisone acetate, p.o., twice on first day, once daily on following 4 days, determined on day 14 after infection

solubility ([1]; mcilvaine buffer, pH 8.02, aqueous buffer, solvent b = Mellvaine buffer(pH8.02), read-out: solubility): 500 µg/mL
Structure (SMILES): CCCCCC(=O)Oc1c(C)cc(C[n+]2cnn(CC3(c4ccc(Cl)cc4Cl)OCC(COc4ccc(N5CCN(c6ccc(-n7cnn(C(C)CC)c7=O)cc6)CC5)cc4)O3)c2)cc1C (racemic) [Example 13, dl-1-[4-(4-{4-[4-(1-sec-butyl-5-oxo-1,5-dihydro-[1,2,4]triazol-4-yl)-phenyl]-piperazin-1-yl}-phenoxymethyl)-2-(2,4-dichloro-phenyl)-[1,3]dioxolan-2-ylmethyl]-4-(4-hexanoyloxy-3,5-dimethyl-benzyl)-1H-[1,2,4]triazol-4-ium methanesulfonate]

Structure (SMILES): CO[C@H]1[C@@H](Cn2c[n+](Cc3cc(C)c(OC(C)=O)c(C)c3)cn2)[C@H](CCc2ccc(C)cc2)CCC1(C)C.[Br-] [Example 8, 4-(4-acetoxy-3,5-dimethyl-benzyl)-1-[(1R,2S,6R)-2-methoxy-3,3-dimethyl-6-(2-p-tolyl-ethyl)-cyclohexylmethyl]-1H-[1,2,4]triazol-4-ium bromide]
solubility ([1]; distilled water, water): 14000 µg/mL

Structure (SMILES): COc1cc(C[n+]2ccn(CC3(c4ccc(Cl)cc4Cl)OCC(COc4ccc(N5CCN(C(C)=O)CC5)cc4)O3)c2)ccc1OC(C)=O (centres unmarked) [Example 12]
solubility [1, 6]: 5000 µg/mL

solubility [1, 7]: 400 µg/mL
Structure (SMILES): CCC(C)n1ncn(-c2ccc(N3CCN(c4ccc(OCC5COC(Cn6c[n+](Cc7cc(C)c(OC(=O)c8ccccc8)c(C)c7)cn6)(c6ccc(Cl)cc6Cl)O5)cc4)CC3)cc2)c1=O.[Br-] (centres unmarked) [Example 3, 4-(4-Benzoyloxy-3,5-dimethylbenzyl)-1-[4-(4-{4-[4-(1-(2-butyl)-5-oxo-1,5-dihydro-[1,2,4]triazol-4-yl)phenyl]piperazin-1-yl}phenoxymethyl)-2-(2,4-dichlorophenyl)-[1,3]dioxolan-2-ylmethyl]-1H-[1,2,4]triazol-4-ium bromide]

Structure (SMILES): CC(=O)Oc1ccc(C[n+]2ccn(C[C@]3(c4ccc(Cl)cc4Cl)OC[C@H](COc4ccc(N5CCN(C(C)=O)CC5)cc4)O3)c2)cc1 (relative stereo) [Example 9, 1-(4-Acetoxybenzyl)-3-[(2R*,4S*)-4-[4-(4-acetylpiperazin-1-yl)phenoxymethyl]-2-(2,4-dichlorophenyl)-[1,3]dioxolan-2-ylmethyl]-3H-imidazol-1-ium bromide]
metabolised at 5 min [2, 8]: 89%
remaining at 5 min [2, 9]: < 5%

Structure (SMILES): CC(=O)Oc1c(Cl)cc(C[n+]2ccn(CC3(c4ccc(Cl)cc4Cl)OCC(COc4ccc(N5CCN(C(C)=O)CC5)cc4)O3)c2)cc1Cl (stereo not drawn) [Example 6, 1-(4-Acetoxy-3,5-dichloro-benzyl)-3-[(2R*,4S*)-[4-[4-(4-acetyl-piperazin-1-yl)-phenoxymethyl]-2-(2,4-dichloro-phenyl)-[1,3]dioxolan-2-ylmethyl]-3H-imidazol-1-ium bromide]
solubility [1, 6]: 6500 µg/mL

Structure (SMILES): OC(Cn1cncn1)(Cn1cncn1)c1ccc(F)cc1F [Fluconazole, reference compound]
ED50 ([3]; po, read-out: Effective dose 50% (ED50) Systemic candidiasis p.o.): > 2.9 µmol/kg

solubility ([1]; distilled water, water): > 1000 µg/mL
Structure (SMILES): CC(=O)N1CCN(c2ccc(OC[C@H]3CO[C@](Cn4cc[n+](Cc5cc(C)c(OC(=O)C(C)C)c(C)c5)c4)(c4ccc(Cl)cc4Cl)O3)cc2)CC1.[Br-] (relative stereo) [Example 5, 3-[(2R*,4S*)-4-[4-(4-Acetyl-piperazin-1-yl)-phenoxymethyl]-2-(2,4-dichloro-phenyl)-[1,3]dioxolan-2-ylmethyl]-1-(4-isobutyryloxy-3,5-dimethyl-benzyl)-3H-imidazol-1-ium bromide]

metabolised at 10 min ([2]; ketoconazole formed, incubation time 10 min, read-out: Observed (%) KCZ): 80%
remaining at 10 min ([2]; remaining parent compound, incubation time 10 min, read-out: Observed (%) Comp. I): < 5%
Structure (SMILES): CC(=O)N1CCN(c2ccc(OCC3COC(Cn4cc[n+](Cc5ccc(OC(=O)C(C)(C)C)cc5)c4)(c4ccc(Cl)cc4Cl)O3)cc2)CC1 (stereo not drawn) [Example 10, 3-[(2R*,4S*)-4-[4-(4-Acetylpiperazin-1-yl)phenoxymethyl]-2-(2,4-dichlorophenyl)-[1,3]dioxolan-2-ylmethyl]-1-[4-(2,2-dimethylpropionyloxy)benzyl]-3H-imidazol-1-ium bromides]

Structure (SMILES): CC(=O)Oc1ccc(C[n+]2ccn(C[C@]3(c4ccc(Cl)cc4Cl)OC[C@H](COc4ccc(N5CCN(C(C)=O)CC5)cc4)O3)c2)cc1C (relative stereo) [Example 11, 1-(4-Acetoxy-3-methyl-benzyl)-3-[(2R*,4S*)-4-[4-(4-acetyl-piperazin-1-yl)-phenoxymethyl]-2-(2,4-dichloro-phenyl)-[1,3]dioxolan-2-ylmethyl]-3H-imidazol-1-ium bromide]
metabolised at 5 min [2, 8]: 100%
remaining at 5 min [2, 9]: < 5%

solubility [1, 7]: 400 µg/mL
Structure (SMILES): CCC(C)n1ncn(-c2ccc(N3CCN(c4ccc(OCC5COC(Cn6c[n+](Cc7cc(C)c(OC(=O)c8cccnc8)c(C)c7)cn6)(c6ccc(Cl)cc6Cl)O5)cc4)CC3)cc2)c1=O.[Br-] (centres unmarked) [Example 2, 4-(4-(Pyridine-3-carbonyloxy)-3,5-dimethylbenzyl)-1-[4-(4-{4-(4-(1-(2-butyl)-5-oxo-1,5-dihydro-[1,2,4]triazol-4-yl)phenyl]piperazin-1-yl}phenoxymethyl)-2-(2,4-dichlorophenyl)-[1,3]dioxolan-2-ylmethyl]-1H-[1,2,4]triazol-4-ium bromide]

Structure (SMILES): CC(=O)Oc1c(C)cc(C[n+]2ccn(CC3(c4ccc(Cl)cc4Cl)OCC(COc4ccc(N5CCN(C(C)=O)CC5)cc4)O3)c2)cc1C (stereo not drawn) [Example 4, 1-(4-Acetoxy-3,5-dimethyl-benxyl)-3-[(2R*,4S*)-4-[4-(4-acetyl-piperazin-1-yl)-phenoxymethyl]-2-(2,4-dichloro-phenyl)-[1,3]dioxolan-2-ylmethyl]-3H-imidazol-1-ium bromide]
metabolised at 20 min ([2]; ketoconazole formed, incubation time 20 min, read-out: Observed (%) KCZ): 74%
remaining at 20 min ([2]; remaining parent compound, incubation time 20 min, read-out: Observed (%) Comp. I): 19%

Structure (SMILES): Cc1cc(C[n+]2cnn(C[C@](O)(c3ccc(F)cc3F)[C@@H](C)c3nc(-c4ccc(C#N)cc4)cs3)c2)cc(C)c1OC(=O)[C@@H]1CCCN1 [Example 16, 1-[(2R,3R)-3-[4-(4-Cyanophenyl)-thiazol-2-yl]-2-(2,4-difluorophenyl)-2-hydroxybutyl]-4-[(S)-3,5-dimethyl-4-(pyrrolidine-2-carbonyloxy)-benzyl]-1H-[1,2,4]triazol-4-ium bromide trifluoroacetic acid salt]
ED50 [3, 10]: 3.5 µmol/kg
ED50 [3, 11]: < 2.1 µmol/kg
ED50 [4, 12]: > 35 µmol/kg
ED50 [4, 13]: > 55 µmol/kg
ED50 [5, 14]: 17 µmol/kg
ED50 [5, 15]: 18 µmol/kg

Structure (SMILES): CCC(C)n1ncn(-c2ccc(N3CCN(c4ccc(OCC5COC(Cn6cncn6)(c6ccc(Cl)cc6Cl)O5)cc4)CC3)cc2)c1=O (centres unmarked) [Itraconazole, reference compound]
ED50 ([4]; po, read-out: Effective dose 50% (ED50) Systemic aspergillosis p.o.): 17 µmol/kg

Structure (SMILES): CC(=O)Oc1c(C)cc(C[n+]2ccn(CC(OCc3ccc(Cl)cc3Cl)c3ccc(Cl)cc3Cl)c2)cc1C (racemic) [Example 7, dl-1-(4-Acetoxy-3,5-dimethyl-benzyl)-3-[2-(2,4-dichloro-benzyloxy)-2-(2,4-dichloro-phenyl)-ethyl]-3H-imidazol-1-ium bromide]
solubility [1, 6]: > 1000 µg/mL

Structure (SMILES): CCC(C)n1ncn(-c2ccc(N3CCN(c4ccc(OCC5COC(Cn6c[n+](Cc7cc(C)c(OC(C)=O)c(C)c7)cn6)(c6ccc(Cl)cc6Cl)O5)cc4)CC3)cc2)c1=O (centres unmarked) [Example 1]
metabolised at 1 h ([2]; itraconazole formed, incubation time 60 min, read-out: Observed (%) ICZ): 28%
remaining at 1 h ([2]; remaining parent compound, incubation time 60 min, read-out: Observed (%) Comp. I): 47%

Structure (SMILES): CNCC(=O)Oc1c(C)cc(C[n+]2cnn(C[C@](O)(c3ccc(F)cc3F)[C@@H](C)c3nc(-c4ccc(C#N)cc4)cs3)c2)cc1C [Example 23, 1-[(2R,3R)-3-[4-(4-Cyanophenyl)thiazol-2-yl]-2-(2,4-difluorophenyl)-2-hydroxybutyl]-4-[3,5-dimethyl-4-[(methylamino)acetoxy]benzyl]-1H-[1,2,4]triazol-4-ium bromide trifluoroacetic acid salt]
ED50 [3, 10]: 4.6 µmol/kg
ED50 [3, 11]: 4.7 µmol/kg
ED50 [4, 12]: 17 µmol/kg
ED50 [4, 13]: 19 µmol/kg
ED50 [5, 14]: 8 µmol/kg
ED50 [5, 15]: 17 µmol/kg
